Measured values from paper PMC6681393, “Intra-Nasally Administered Oligopeptide Lunasin Acts as a Possible Anti-Psychotic Agent in Mice Models” (Medicina, 2019).
“Also recorded” adds a separate entry of the source.

Tests used:
[1] = system: apomorphine-induced climbing activity; conditions: direct central administration (intracisternally); cited from earlier work
[2] = system: locomotion altered by ketamine; conditions: central (intracisternal) injection; cited from earlier work
[3] = system: PCP-induced hyperlocomotion in ICR mice; test: Open field locomotor activity, phencyclidine-induced hyperlocomotion; assay type: in vivo, male albino ICR mice; conditions: lunasin 0.1 or 1 nmol/mouse i.n. after PCP 5 mg/kg i.p., n = 7–8
[4] = system: dopamine D1 receptor subtype; conditions: cited from earlier work
From the text: (§1) Thus, lunasin at both doses normalized to control the level of behavioural changes after amphetamine in ...

[5] = system: amphetamine-induced hyper-locomotion; conditions: direct central administration (intracisternally); cited from earlier work
From the text: as §1

[6] = system: dopamine D2 receptor subtype; conditions: cited from earlier work
From the text: as §1

brain monoamine levels = test: Brain monoamines and metabolites, lunasin per se (UHPLC-TOF-MS); assay type: in vivo, male albino ICR mice; conditions: lunasin i.n. alone; for brain dopamine level, lunasin per se (words): p < 0.01
5-HT2C receptor = test: [125I]DOI binding displacement, 5-HT2C; design: species or system human; conditions: for inhibition of [125I]DOI specific binding: mean of duplicates (n = 2)
Description: (§2) The binding assay was performed by Eurofins Cerep (France) according to Bryant et al., 1996 [15]. Briefly, the binding of lunasin to 5-HT2A and 5-HT2C receptors was estimated on its ability to displace the specific binding of [^125I]DOI on cell membrane suspensions of HEK-293 cells expressing human recombinant 5-HT2A and 5-HT2C receptors. The radioligand [^125I]DOI has high affinity for 5-HT2A (Kd: 0.3 nM) and 5-HT2C (Kd: 0.9 nM) receptors. Lunasin was tested at concentrations of 1, 10 and 100 µM. The results were expressed as a percent of radioligand specific binding (n = 2).

5-HT2A receptor = test: [125I]DOI binding displacement, 5-HT2A; design: species or system human; conditions: for inhibition of [125I]DOI specific binding: mean of duplicates (n = 2)
Description: as §2

[7] = system: amphetamine-induced hyperlocomotion in ICR mice; test: Open field locomotor activity, amphetamine-induced hyperlocomotion; assay type: in vivo, male albino ICR mice; conditions: for Locomotion (distance, cm): 15-min open field; for Locomotion (distance, cm) / effect on amphetamine hyperlocomotion: n = 7–8; as to Locomotion (distance, cm): key: ↑: increase; ↓: decrease; N: normalization; Nc: no changes
[8] = system: brain monoamine levels, amphetamine-treated mice; test: Brain monoamines and metabolites, amphetamine-treated mice (UHPLC-TOF-MS); assay type: in vivo, male albino ICR mice; conditions: for amphetamine-altered brain noradrenaline level (words): lunasin 0.1 nmol/mouse i.n. As to 5-HIAA (brain level, ng/g): key: ↑: increase; ↓: decrease; N: normalization; Nc: no changes. As to DA (brain dopamine level, ng/g): key: ↑: increase; ↓: decrease; N: normalization; Nc: no changes. As to NA (brain noradrenaline level, ng/g): key: ↑: increase; ↓: decrease; N: normalization; Nc: no changes.
[9] = system: brain monoamine levels, DOI-treated mice; test: Brain monoamines and metabolites, DOI-treated mice (UHPLC-TOF-MS); assay type: in vivo, male albino ICR mice
[10] = system: DOI-induced hyperlocomotion in ICR mice; test: Open field locomotor activity, DOI-induced hyperlocomotion; assay type: in vivo, male albino ICR mice; conditions: for effect on DOI hyperactivity (words): lunasin 1 nmol/mouse i.n., p = 0.0137
[11] = system: locomotor activity of ICR mice; test: Open field locomotor activity, lunasin per se; assay type: in vivo, male albino ICR mice; conditions: lunasin 0.1 or 1 nmol/mouse i.n. alone; 15-min test; n = 7–8
[12] = 1 and 10 µM, HEK-293 cell membranes
[13] = lunasin i.n., amphetamine-treated mice, dose not stated
[14] = lunasin 0.1 nmol/mouse i.n. + amphetamine 3 mg/kg i.p., n = 6–8
[15] = lunasin 1 nmol/mouse i.n. + amphetamine 3 mg/kg i.p., n = 6–8
[16] = lunasin 1 nmol/mouse i.n., p < 0.01
[17] = lunasin 0.1 and 1 nmol/mouse i.n., p < 0.0001
[18] = lunasin 0.1 nmol/mouse i.n. + DOI 3 mg/kg i.p., n = 6–8
[19] = lunasin 1 nmol/mouse i.n. + DOI 3 mg/kg i.p., n = 6–8
[20] = lunasin i.n., DOI-treated mice, dose not stated

**Q.** With lunasin as the substance, how does the “apomorphine-induced climbing activity” value [1] read?
**A.** The value was “reduced amphetamine-induced hyper-locomotion and apomorphine-induced climbing activity”.

**Q.** And the “effect on locomotion altered by ketamine” value [2]?
**A.** The value was “did not influence locomotion altered by ketamine”.

**Q.** And the “effect on PCP hyperlocomotion (words)” value [3]?
**A.** Its value is “Phencyclidine behavioural effects were not influenced”.

**Q.** And the “effect on PCP hyperlocomotion (words)” value ([3]; listed as lunasin)?
**A.** The value was “did not influence the PCP effect; also recorded: we did not find any influence of lunasin on PCP-induced hyperactivity”.

**Q.** And the “dopamine D1 receptor affinity” value [4]?
**A.** The value was “has an affinity similar to that of dopamine”.

**Q.** And the “amphetamine-induced hyper-locomotion” value [5]?
**A.** Its value is “reduced amphetamine-induced hyper-locomotion”.

**Q.** And the “dopamine D2 receptor binding” value [6]?
**A.** The value was “does not bind to the dopamine D2 receptor subtype”.

**Q.** What about the “brain DOPAC concentration, lunasin per se” value (brain monoamine levels) of the same substance?
**A.** The value was “Neither lunasin per se nor amphetamine changed the DOPAC concentration”.

**Q.** What about the “brain dopamine level, lunasin per se (words)” value (brain monoamine levels) of the same substance?
**A.** Its value is “significantly decreased dopamine level”.

**Q.** And the “brain dopamine level, lunasin per se (words)” value (brain monoamine levels; listed as lunasin)?
**A.** Its value is “significantly decreased dopamine levels”.

**Q.** And the “inhibition of [125I]DOI specific binding” value (5-HT2C receptor; 1 µM, HEK-293 cell membranes)?
**A.** The value was 4.7%.

**Q.** What about the “inhibition of [125I]DOI specific binding” value (5-HT2C receptor; 10 µM, HEK-293 cell membranes) of the same substance?
**A.** The value was 10.3%.

**Q.** What about the “inhibition of [125I]DOI specific binding” value (5-HT2C receptor; 100 µM, HEK-293 cell membranes) of the same substance?
**A.** The value was 59.7%.

**Q.** And the “binding activity” value (5-HT2C receptor; 100 µM, compared with 5-HT2A)?
**A.** The value was “more considerable”.

**Q.** And the “binding activity” value (5-HT2C receptor; [12])?
**A.** The value was “did not show binding activity”.

**Q.** And the “receptor affinity” value (5-HT2C receptor; compared with DOI, abstract)?
**A.** The value was “low affinity of lunasin (at µM concentrations)”.

**Q.** What about the “inhibition of [125I]DOI specific binding” value (5-HT2A receptor; 1 µM, HEK-293 cell membranes) of the same substance?
**A.** Its value is 1.6%.

**Q.** And the “inhibition of [125I]DOI specific binding” value (5-HT2A receptor; 10 µM, HEK-293 cell membranes)?
**A.** Its value is 2.6%.

**Q.** And the “binding activity” value (5-HT2A receptor; 100 µM)?
**A.** Its value is “weak binding activity”.

**Q.** What about the “inhibition of [125I]DOI specific binding” value (5-HT2A receptor; 100 µM, HEK-293 cell membranes) of the same substance?
**A.** Its value is 32.5%.

**Q.** And the “binding activity” value (5-HT2A receptor; [12])?
**A.** Its value is “did not show binding activity”.

**Q.** And the “receptor affinity” value (5-HT2A receptor; compared with DOI, abstract)?
**A.** The value was “low affinity of lunasin (at µM concentrations)”.

**Q.** What about the “Locomotion (distance, cm)” value ([7]; lunasin 0.1 nmol/mouse i.n. 15 min after amphetamine 3 mg/kg i.p.) of the same substance?
**A.** Its value is “N”.

**Q.** And the “effect on amphetamine hyperlocomotion” value ([7]; lunasin 0.1 nmol/mouse i.n., p = 0.0031)?
**A.** Its value is “considerably decreased; also recorded: normalized to control the level of behavioural changes after amphetamine injection”.

**Q.** And the “Locomotion (distance, cm)” value ([7]; lunasin 1 nmol/mouse i.n. 15 min after amphetamine 3 mg/kg i.p.)?
**A.** The value was “N”.

**Q.** And the “effect on amphetamine hyperlocomotion” value ([7]; lunasin 1 nmol/mouse i.n., p = 0.0018)?
**A.** The value was “considerably decreased; also recorded: normalized to control the level of behavioural changes after amphetamine injection”.

**Q.** And the “hyper-locomotion, summary” value [7, 13]?
**A.** Its value is “fully normalized hyper-locomotion”.

**Q.** And the “5-HIAA (brain level, ng/g)” value [8, 14]?
**A.** The value was “N”.

**Q.** What about the “DA (brain dopamine level, ng/g)” value [8, 14] of the same substance?
**A.** The value was “N”.

**Q.** What about the “NA (brain noradrenaline level, ng/g)” value [8, 14] of the same substance?
**A.** Its value is “N”.

**Q.** What about the “amphetamine-altered brain noradrenaline level (words)” value ([8]; p < 0.01) of the same substance?
**A.** Its value is “reversed amphetamine-induced and DOI-induced (both tested doses) noradrenaline alterations to the control values”.

**Q.** And the “amphetamine-altered brain noradrenaline level (words)” value ([8]; p < 0.01, listed as lunasin)?
**A.** The value was “normalized noradrenaline level to control values”.

**Q.** What about the “5-HIAA (brain level, ng/g)” value [8, 15] of the same substance?
**A.** Its value is “N”.

**Q.** What about the “5-HT (brain level, ng/g)” value [8, 15] of the same substance?
**A.** Its value is “N”.

**Q.** What about the “DA (brain dopamine level, ng/g)” value [8, 15] of the same substance?
**A.** The value was “N”.

**Q.** And the “HVA (brain level, ng/g)” value [8, 15]?
**A.** The value was “N”.

**Q.** What about the “amphetamine-altered brain HVA level” value ([8]; lunasin 1 nmol/mouse i.n., p < 0.001) of the same substance?
**A.** The value was “normalized the altered levels of HVA; also recorded: reversed to control value the elevated levels of dopamine and its metabolite HVA”.

**Q.** And the “amphetamine-increased brain serotonin level” value [8, 16]?
**A.** Its value is “decreased the augmented serotonin; also recorded: fully normalized the levels of serotonin”.

**Q.** And the “amphetamine-increased brain 5-HIAA level” value ([8]; lunasin 0.1 and 1 nmol/mouse i.n. (both doses), p < 0.0001)?
**A.** Its value is “decreased the augmented serotonin (p < 0.01, Figure 2d) at both doses, as well as 5-HIAA levels; also recorded: fully normalized the levels of serotonin and its metabolite 5-HIAA (both tested doses)”.

**Q.** What about the “amphetamine-increased brain dopamine level” value [8, 17] of the same substance?
**A.** Its value is “reversed to control values; also recorded: reversed to control value the elevated levels of dopamine”.

**Q.** What about the “brain monoamine levels, summary” value [8, 13] of the same substance?
**A.** The value was “fully normalized hyper-locomotion and brain monoamine levels”.

**Q.** What about the “5-HIAA (brain level, ng/g)” value [9, 18] of the same substance?
**A.** The value was “N”.

**Q.** And the “5-HT (brain level, ng/g)” value [9, 18]?
**A.** The value was “N”.

**Q.** And the “NA (brain noradrenaline level, ng/g)” value [9, 18]?
**A.** The value was “N”.

**Q.** What about the “5-HIAA (brain level, ng/g)” value [9, 19] of the same substance?
**A.** Its value is “N”.

**Q.** And the “5-HT (brain level, ng/g)” value [9, 19]?
**A.** The value was “N”.

**Q.** What about the “HVA (brain level, ng/g)” value [9, 19] of the same substance?
**A.** The value was “N”.

**Q.** And the “NA (brain noradrenaline level, ng/g)” value [9, 19]?
**A.** The value was “N”.

**Q.** What about the “DOI-altered brain HVA level” value [9, 16] of the same substance?
**A.** The value was “normalized the altered levels of HVA”.

**Q.** What about the “DOI-altered brain noradrenaline level” value ([9]; lunasin 0.1 and 1 nmol/mouse i.n. (both tested doses), p < 0.01) of the same substance?
**A.** Its value is “reversed amphetamine-induced and DOI-induced (both tested doses) noradrenaline alterations to the control values”.

**Q.** What about the “DOI-increased brain 5-HIAA level” value [9, 17] of the same substance?
**A.** Its value is “reversed the DOI up-regulated levels of serotonin and 5-HIAA almost to the control values; also recorded: fully normalized them to the control values”.

**Q.** And the “DOI-increased brain serotonin level” value [9, 17]?
**A.** Its value is “reversed the DOI up-regulated levels of serotonin and 5-HIAA almost to the control values; also recorded: fully normalized them to the control values”.

**Q.** What about the “brain monoamine levels, summary” value [9, 20] of the same substance?
**A.** The value was “fully normalized hyper-locomotion and brain monoamine levels”.

**Q.** What about the “DOI-increased brain DOPAC level” value ([9]; lunasin i.n., dose not stated) of the same substance?
**A.** Its value is “These altered parameters were normalized by lunasin”.

**Q.** What about the “DOI-lowered brain HVA level” value ([9]; lunasin i.n., dose not stated) of the same substance?
**A.** The value was “These altered parameters were normalized by lunasin”.

**Q.** And the “DOI-lowered brain noradrenaline level” value ([9]; lunasin i.n., dose not stated)?
**A.** Its value is “These altered parameters were normalized by lunasin”.

**Q.** And the “Locomotion (distance, cm)” value ([10]; lunasin 1 nmol/mouse i.n. 15 min after DOI 3 mg/kg i.p., 15-min open field, n = 7–8)?
**A.** Its value is “N”.

**Q.** What about the “effect on DOI hyperactivity (words)” value ([10]; n = 7–8) of the same substance?
**A.** The value was “exerted protection against DOI-induced hyper-locomotion”.

**Q.** What about the “effect on DOI hyperactivity (words)” value ([10]; n = 7–8, listed as lunasin) of the same substance?
**A.** Its value is “decreased hyperactivity”.

**Q.** And the “hyper-locomotion, summary” value [10, 20]?
**A.** Its value is “fully normalized hyper-locomotion”.

**Q.** What about the “effect of lunasin per se on locomotion” value [11] of the same substance?
**A.** The value was “did not influence mouse activity”.
